# Results as given in ChEMBL document CHEMBL1671827, “Discovery of MK-5046, a Potent, Selective Bombesin Receptor Subtype-3 Agonist for the Treatment of Obesity” (ACS Med Chem Lett, 2011).
# Calls of active or inactive are those of the source. The rule behind the calls is not given here.
# How the values were obtained:
# [1] = Faction unbound in human plasma at 1 uM; assay type: ADME, cell-free
# [2] = target: T1, Bombesin receptor subtype-3 (Homo sapiens, UniProt P32247); assay: Agonist activity at human BRS-3 expressed in HEK293AEQ cells assessed as induction of intracellular calcium mobilization by aequorin bioluminescence assay; assay type: functional, cell-based
# T1 sequence (P32247 whole entry): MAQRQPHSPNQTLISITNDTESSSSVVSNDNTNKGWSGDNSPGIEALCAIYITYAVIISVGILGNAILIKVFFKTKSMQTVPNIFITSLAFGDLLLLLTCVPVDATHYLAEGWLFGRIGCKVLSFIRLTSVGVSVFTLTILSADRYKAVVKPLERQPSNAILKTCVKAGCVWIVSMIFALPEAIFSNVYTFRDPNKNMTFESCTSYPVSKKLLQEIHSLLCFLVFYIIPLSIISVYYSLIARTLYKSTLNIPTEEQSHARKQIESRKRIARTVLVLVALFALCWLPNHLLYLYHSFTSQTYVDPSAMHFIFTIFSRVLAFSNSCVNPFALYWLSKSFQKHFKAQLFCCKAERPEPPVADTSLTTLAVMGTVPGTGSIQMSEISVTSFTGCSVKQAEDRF
# [3] = Plasma clearance in rat at 1 mg/kg, iv; assay type: ADME, organism-based; design: dose 1 mg/kg, route intravenous
# [4] = target: T1, Bombesin receptor subtype-3; assay: Displacement of [125I]-[D-Tyr6,beta-Ala11,Phe13,Nle14]-Bombesin (6-14) from human BRS-3
# Neuromedin-B receptor = Neuromedin-B receptor (Homo sapiens, UniProt P28336); assay: Inhibition of human NMBR
# Chain of Neuromedin-B receptor (P28336 whole entry): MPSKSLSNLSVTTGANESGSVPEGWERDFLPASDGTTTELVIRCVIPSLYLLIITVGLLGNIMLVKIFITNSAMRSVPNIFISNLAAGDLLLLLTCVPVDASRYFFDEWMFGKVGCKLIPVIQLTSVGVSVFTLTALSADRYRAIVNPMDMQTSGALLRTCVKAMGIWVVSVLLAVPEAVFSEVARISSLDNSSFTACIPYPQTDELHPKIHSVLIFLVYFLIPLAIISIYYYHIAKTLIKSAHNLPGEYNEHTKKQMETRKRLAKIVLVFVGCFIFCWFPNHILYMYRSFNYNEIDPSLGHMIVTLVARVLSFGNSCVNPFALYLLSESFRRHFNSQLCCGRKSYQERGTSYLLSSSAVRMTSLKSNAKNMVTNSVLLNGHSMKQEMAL
# [5] = target: Voltage-gated inwardly rectifying potassium channel KCNH2 (Homo sapiens, UniProt Q12809); assay: Binding affinity to human ERG
# Chain of Voltage-gated inwardly rectifying potassium channel KCNH2 (Q12809 whole entry): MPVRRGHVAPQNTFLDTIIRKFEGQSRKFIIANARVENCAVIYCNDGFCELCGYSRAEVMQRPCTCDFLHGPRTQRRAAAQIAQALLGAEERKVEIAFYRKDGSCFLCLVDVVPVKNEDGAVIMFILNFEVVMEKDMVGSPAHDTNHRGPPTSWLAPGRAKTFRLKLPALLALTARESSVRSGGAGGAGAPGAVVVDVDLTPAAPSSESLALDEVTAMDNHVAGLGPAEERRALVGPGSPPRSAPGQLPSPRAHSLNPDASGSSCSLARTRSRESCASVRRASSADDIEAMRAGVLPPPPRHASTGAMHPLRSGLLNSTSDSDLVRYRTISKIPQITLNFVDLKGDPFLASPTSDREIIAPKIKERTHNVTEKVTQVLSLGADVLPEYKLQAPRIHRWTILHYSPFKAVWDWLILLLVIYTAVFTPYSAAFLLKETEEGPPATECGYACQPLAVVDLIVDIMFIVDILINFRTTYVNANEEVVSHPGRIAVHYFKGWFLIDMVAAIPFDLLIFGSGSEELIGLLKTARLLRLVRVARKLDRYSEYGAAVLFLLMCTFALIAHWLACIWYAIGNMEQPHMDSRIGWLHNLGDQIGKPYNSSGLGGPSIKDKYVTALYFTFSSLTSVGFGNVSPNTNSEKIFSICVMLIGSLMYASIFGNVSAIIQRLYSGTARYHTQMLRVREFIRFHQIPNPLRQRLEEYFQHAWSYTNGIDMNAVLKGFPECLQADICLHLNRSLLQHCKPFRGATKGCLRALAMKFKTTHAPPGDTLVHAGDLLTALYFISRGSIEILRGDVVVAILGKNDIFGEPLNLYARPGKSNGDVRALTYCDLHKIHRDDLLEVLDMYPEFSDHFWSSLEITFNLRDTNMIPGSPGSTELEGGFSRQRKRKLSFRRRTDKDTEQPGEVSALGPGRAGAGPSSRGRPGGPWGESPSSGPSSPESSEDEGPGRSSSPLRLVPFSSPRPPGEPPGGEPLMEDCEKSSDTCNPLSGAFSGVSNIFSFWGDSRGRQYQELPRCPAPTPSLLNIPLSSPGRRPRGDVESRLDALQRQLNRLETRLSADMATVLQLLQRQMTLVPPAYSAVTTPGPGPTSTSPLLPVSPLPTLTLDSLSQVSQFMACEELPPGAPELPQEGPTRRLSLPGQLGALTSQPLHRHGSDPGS
# [6] = target: Gastrin-releasing peptide receptor (Homo sapiens, UniProt P30550); assay: Inhibition of human GRPR
# Chain of Gastrin-releasing peptide receptor (P30550 whole entry): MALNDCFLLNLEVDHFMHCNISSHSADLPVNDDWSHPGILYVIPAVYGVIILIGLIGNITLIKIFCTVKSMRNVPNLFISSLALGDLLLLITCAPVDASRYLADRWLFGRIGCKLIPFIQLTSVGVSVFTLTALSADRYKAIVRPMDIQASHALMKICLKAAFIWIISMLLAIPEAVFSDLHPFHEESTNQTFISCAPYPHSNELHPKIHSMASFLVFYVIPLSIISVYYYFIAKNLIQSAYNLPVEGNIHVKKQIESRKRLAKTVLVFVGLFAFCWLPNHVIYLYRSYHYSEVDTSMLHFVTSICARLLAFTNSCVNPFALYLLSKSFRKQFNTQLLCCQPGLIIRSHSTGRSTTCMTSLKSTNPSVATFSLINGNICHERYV
# [7] = Half life in rat liver microsomes
# [8] = target: T2, Nuclear receptor subfamily 1 group I member 2 (Homo sapiens, UniProt O75469)
# T2 sequence (O75469 whole entry): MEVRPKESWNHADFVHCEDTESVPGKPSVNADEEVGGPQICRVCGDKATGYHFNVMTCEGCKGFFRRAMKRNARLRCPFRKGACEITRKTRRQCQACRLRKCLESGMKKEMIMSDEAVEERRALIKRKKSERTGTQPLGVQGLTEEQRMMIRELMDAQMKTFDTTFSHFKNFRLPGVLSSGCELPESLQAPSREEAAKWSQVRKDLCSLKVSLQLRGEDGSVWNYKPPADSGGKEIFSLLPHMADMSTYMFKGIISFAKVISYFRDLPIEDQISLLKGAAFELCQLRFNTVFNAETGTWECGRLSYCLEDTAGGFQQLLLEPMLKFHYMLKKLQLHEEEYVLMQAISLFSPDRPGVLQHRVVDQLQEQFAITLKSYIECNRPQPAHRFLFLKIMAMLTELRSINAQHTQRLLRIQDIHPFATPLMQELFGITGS
# [9] = Fraction unbound in rat plasma at 1 uM; assay type: ADME, cell-free
# [10] = Inhibition of human calcium channel diltiazem binding site
# [11] = Agonist activity at rhesus monkey BRS-3 expressed in HEK293AEQ cells assessed as induction of intracellular calcium mobilization by aequorin bioluminescence assay; assay type: functional, cell-based; conditions: Macaca mulatta
# [12] = Plasma clearance in mouse at 1 mg/kg, iv; assay type: ADME, organism-based; design: dose 1 mg/kg, route intravenous
# Mus musculus [13] = species: Mus musculus; assay: Antiobesity activity in wild type mouse assessed as reduction of food intake; assay type: functional, organism-based
# [14] = Binding affinity to rhesus monkey BRS-3; design: species or system Macaca mulatta
# [15] = Volume of distribution at steady state in mouse at 1 mg/kg, iv; assay type: ADME, organism-based; design: dose 1 mg/kg, route intravenous; conditions: in vivo, read-out: Vdss
# [16] = Agonist activity at dog BRS-3 expressed in HEK293AEQ cells assessed as induction of intracellular calcium mobilization by aequorin bioluminescence assay relative to dY peptide; conditions: Canis lupus familiaris
# [17] = Oral bioavailability in rat at 2 mg/kg; assay type: ADME, organism-based; conditions: in vivo
# [18] = target: T3, Bombesin receptor subtype-3 (Mus musculus, UniProt O54798); assay: Displacement of [3H]Bag-3 from mouse BRS-3
# T3 sequence (O54798 whole entry): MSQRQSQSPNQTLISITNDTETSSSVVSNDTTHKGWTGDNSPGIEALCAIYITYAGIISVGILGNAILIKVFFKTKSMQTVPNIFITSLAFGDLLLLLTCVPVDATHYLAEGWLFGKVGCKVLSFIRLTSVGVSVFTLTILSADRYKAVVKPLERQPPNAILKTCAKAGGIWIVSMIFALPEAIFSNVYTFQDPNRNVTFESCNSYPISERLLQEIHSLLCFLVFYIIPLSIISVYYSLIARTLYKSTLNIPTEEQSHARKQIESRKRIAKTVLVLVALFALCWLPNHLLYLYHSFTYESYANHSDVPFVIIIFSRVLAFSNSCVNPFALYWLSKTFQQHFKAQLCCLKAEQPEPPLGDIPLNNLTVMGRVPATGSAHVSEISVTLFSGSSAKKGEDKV
# [19] = Plasma clearance in dog at 0.5 mg/kg, iv; assay type: ADME, organism-based, Canis lupus familiaris; design: dose 0.5 mg/kg, route intravenous
# [20] = Half life in rat at 1 mg/kg, iv; assay type: ADME, organism-based; design: dose 1 mg/kg, route intravenous; conditions: in vivo
# [21] = Half life in dog at 0.5 mg/kg, iv; assay type: ADME, organism-based, Canis lupus familiaris; design: dose 0.5 mg/kg, route intravenous; conditions: in vivo
# [22] = Agonist activity at rhesus monkey BRS-3 expressed in HEK293AEQ cells assessed as induction of intracellular calcium mobilization by aequorin bioluminescence assay relative to dY peptide; conditions: Macaca mulatta
# [23] = Volume of distribution at steady state in dog at 0.5 mg/kg, iv; assay type: ADME, organism-based, Canis lupus familiaris; design: dose 0.5 mg/kg, route intravenous; conditions: in vivo, read-out: Vdss
# Mus musculus [24] = species: Mus musculus; assay: Antiobesity activity in wild type mouse assessed as increase of fasting metabolic rate; assay type: functional, organism-based
# Mus musculus [25] = assay: Antiobesity activity in eDIO mouse assessed as reduction of body weight at 25 mg/kg, sc relative to control; assay type: functional; design: scale not given: the % may be the effect or the level left; conditions: route subcutaneous
# [26] = Half life in mouse at 1 mg/kg, iv; assay type: ADME, organism-based; design: dose 1 mg/kg, route intravenous; conditions: in vivo
# [27] = Binding affinity to dog BRS-3; design: species or system Canis lupus familiaris
# [28] = Agonist activity at dog BRS-3 expressed in HEK293AEQ cells assessed as induction of intracellular calcium mobilization by aequorin bioluminescence assay; assay type: functional, cell-based; conditions: Canis lupus familiaris
# [29] = Oral bioavailability in dog at 1 mg/kg; assay type: ADME, organism-based, Canis lupus familiaris; conditions: in vivo
# [30] = target: T4, Bombesin receptor subtype-3 (Rattus norvegicus, UniProt Q8K418); assay: Agonist activity at rat BRS-3 expressed in HEK293AEQ cells assessed as induction of intracellular calcium mobilization by aequorin bioluminescence assay; assay type: functional, cell-based
# T4 sequence (Q8K418 whole entry): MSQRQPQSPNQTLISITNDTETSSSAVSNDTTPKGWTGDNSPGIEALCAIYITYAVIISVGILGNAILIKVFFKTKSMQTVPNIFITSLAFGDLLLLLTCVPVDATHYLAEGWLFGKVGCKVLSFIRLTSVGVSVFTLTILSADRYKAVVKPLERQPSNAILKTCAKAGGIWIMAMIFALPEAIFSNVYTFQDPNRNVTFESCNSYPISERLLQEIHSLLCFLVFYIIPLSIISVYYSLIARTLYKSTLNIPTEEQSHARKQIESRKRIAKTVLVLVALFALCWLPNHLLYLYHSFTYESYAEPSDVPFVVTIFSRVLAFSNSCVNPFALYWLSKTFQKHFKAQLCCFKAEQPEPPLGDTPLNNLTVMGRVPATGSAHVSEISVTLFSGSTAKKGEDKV
# [31] = Volume of distribution at steady state in rhesus monkey at 0.5 mg/kg, iv; assay type: ADME, organism-based, Macaca mulatta; design: dose 0.5 mg/kg, route intravenous; conditions: in vivo, read-out: Vdss
# [32] = Plasma clearance in rhesus monkey at 0.5 mg/kg, iv; assay type: ADME, organism-based, Macaca mulatta; design: dose 0.5 mg/kg, route intravenous
# Mus musculus [33] = assay: Antiobesity activity in eDIO mouse assessed as reduction of body weight at 25 mg/kg, sc after 14 days; assay type: functional, organism-based; design: dose 25 mg/kg
# [34] = Volume of distribution at steady state in rat at 1 mg/kg, iv; assay type: ADME, organism-based; design: dose 1 mg/kg, route intravenous; conditions: in vivo, read-out: Vdss
# [35] = Half life in rhesus monkey at 0.5 mg/kg, iv; assay type: ADME, organism-based, Macaca mulatta; design: dose 0.5 mg/kg, route intravenous; conditions: in vivo
# [36] = target: T3, Bombesin receptor subtype-3; assay: Agonist activity at mouse BRS-3 expressed in HEK293AEQ cells assessed as induction of intracellular calcium mobilization by aequorin bioluminescence assay; assay type: functional, cell-based
# Mus musculus [37] = species: Mus musculus; assay: Antiobesity activity in BRS3 deficient mouse assessed as increase of fasting metabolic rate; assay type: functional, organism-based
# [38] = Oral bioavailability in mouse at 2 mg/kg, po; assay type: ADME, organism-based; conditions: in vivo
# Mus musculus [39] = species: Mus musculus; assay: Antiobesity activity in BRS3 deficient mouse assessed as reduction of food intake; assay type: functional, organism-based
# [40] = target: T4, Bombesin receptor subtype-3; assay: Displacement of [3H]Bag-3 from rat BRS-3
# [41] = Oral bioavailability in rhesus monkey at 1 mg/kg; assay type: ADME, organism-based, Macaca mulatta; conditions: in vivo
compound,measurement,setting,value
CC(C)(C)Cc1c[nH]c(CC(C)(O)c2ccc(-n3cccn3)cc2)n1 (stereo not drawn),fraction unbound at 1 µM,[1],0.068
same,EC50,[2],16 nM
same,clearance,[3],110 mL/min/kg
same,IC50,[4],5 nM
CC(C)(C)Cc1c[nH]c(CC(C)(O)c2ccc(-c3ccc(F)cn3)cc2)n1 (stereo not drawn),IC50,Neuromedin-B receptor,> 10000 nM
same,Ki,[5],4200 nM
same,fraction unbound at 1 µM,[1],0.004
same,EC50,[2],67 nM
same,IC50,[6],> 10000 nM
same,half-life,[7],5 min
same,clearance,[3],28 mL/min/kg
same,EC50,[8],> 25000 nM
same,IC50,[4],17 nM
same,fraction unbound at 1 µM,[9],0.2
same,IC50,[10],1900 nM
O[C@@](Cc1nc(CC2(C(F)(F)F)CC2)c[nH]1)(c1ccc(-n2cccn2)cc1)C(F)(F)F,Ki,[5],> 8000 nM
same,EC50,[11],6.9 nM
same,clearance,[12],32 mL/min/kg
same,Activity,Mus musculus [13],Active
same,IC50,[14],50 nM
same,Ki,[14],2.4 nM
same,Vd,[15],2.2 L/kg
same,fraction unbound at 1 µM,[1],0.01
same,Emax,[16],100%
same,bioavailability,[17],64%
same,IC50,[18],5.4 nM
same,Ki,[18],1.6 nM
same,EC50,[2],14 nM
same,clearance,[19],5.6 mL/min/kg
same,half-life,[20],42 min
same,half-life,[21],84 min
same,Emax,[22],110%
same,Vd,[23],0.45 L/kg
same,Activity,Mus musculus [24],Active
same,Activity,Mus musculus [25],8%
same,half-life,[26],66 min
same,IC50,[27],6.5 nM
same,Ki,[27],9.9 nM
same,EC50,[28],1.6 nM
same,bioavailability,[29],52%
same,EC50,[30],2.2 nM
same,Vd,[31],0.44 L/kg
same,clearance,[32],8.8 mL/min/kg
same,clearance,[3],20 mL/min/kg
same,Activity,Mus musculus [33],Active
same,Vd,[34],0.98 L/kg
same,half-life,[35],60 min
same,EC50,[36],21 nM
same,Activity,Mus musculus [37],inactive
same,bioavailability,[38],9.6%
same,IC50,[4],27 nM
same,Ki,[4],3.7 nM
same,Activity,Mus musculus [39],inactive
same,IC50,[40],1.2 nM
same,Ki,[40],0.6 nM
same,bioavailability,[41],18%
CC(O)(Cc1nc(CC2(C(F)(F)F)CC2)c[nH]1)c1ccc(-n2cccn2)cc1 (stereo not drawn),fraction unbound at 1 µM,[1],0.032
same,EC50,[2],14 nM
same,clearance,[19],10 mL/min/kg
same,half-life,[21],18 min
same,bioavailability,[29],29%
same,clearance,[3],52 mL/min/kg
same,IC50,[4],11 nM
CCC(C)(C)Cc1cnc(CCc2ccc(-c3ccc(F)cn3)cc2)[nH]1,half-life,[7],3 min
same,clearance,[3],12 mL/min/kg
same,IC50,[4],16 nM
CC(C)(C)Cc1c[nH]c(C(C)(O)Cc2ccc(-c3ccc(F)cn3)cc2)n1 (stereo not drawn),Ki,[5],5900 nM
same,fraction unbound at 1 µM,[1],0.001
same,EC50,[2],220 nM
same,half-life,[7],1 min
same,clearance,[3],14 mL/min/kg
same,IC50,[4],82 nM
same,fraction unbound at 1 µM,[9],0.2
